We go through two molecules from US20070208001A1, “Modulators of 11- beta hydroxyl steroid dehydrogenase type 1, pharmaceutical compositions thereof, and methods of using the same” (priority 2006, published 2007).

A word on the IC50: it is the concentration that gives 50% inhibition. A higher IC50 goes with weaker potency in that assay.

The target in one assay is T1, human 11βHSD1 (Homo sapiens, UniProt P28845).
T1 construct: made in house; host or cells: HEK-293 transient transfectants; clarified lysate, not purified
T1 sequence (P28845 whole entry): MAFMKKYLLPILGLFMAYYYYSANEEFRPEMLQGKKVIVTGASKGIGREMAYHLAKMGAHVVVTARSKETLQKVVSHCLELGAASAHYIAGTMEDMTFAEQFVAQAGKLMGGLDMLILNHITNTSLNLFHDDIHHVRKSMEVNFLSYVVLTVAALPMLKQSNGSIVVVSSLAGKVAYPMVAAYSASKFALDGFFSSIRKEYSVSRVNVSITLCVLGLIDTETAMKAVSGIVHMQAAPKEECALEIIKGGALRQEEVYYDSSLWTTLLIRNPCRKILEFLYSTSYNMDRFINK
In words: Enzymatic assay of 11βHSD1 (Scintillation Proximity Assay, clarified lysates). The following applies: SPA, HEK-293 lysate expressing full-length human 11βHSD1, 25 nM 3H-cortisone, 400 μM NADPH, 37° C., one hour. Format: biochemical. How it is done: Enzymatic assay of 11βHSD1
All in vitro assays were performed with clarified lysates as the source of 11βHSD1 activity. HEK-293 transient transfectants expressing an epitope-tagged version of full-length human 11βHSD1 were harvested by centrifugation. Roughly 2×10^7 cells were resuspended in 40 mL of lysis buffer (25 mM Tris-HCl, pH 7.5, 0.1 M NaCl, 1 mM MgCl2 and 250 mM sucrose) and lysed in a microfluidizer. Lysates were clarified by centrifugation and the supernatants were aliquoted and frozen.
Inhibition of 11βHSD1 by test compounds was assessed in vitro by a Scintillation Proximity Assay (SPA). Dry test compounds were dissolved at 5 mM in DMSO. These were diluted in DMSO to suitable concentrations for the SPA assay. 0.8 μL of 2-fold serial dilutions of compounds were dotted on 384 well plates in DMSO such that 3 logs of compound concentration were covered. 20 μL of clarified lysate was added to each well. Reactions were initiated by addition of 20 μL of substrate-cofactor mix in assay buffer (25 mM Tris-HCl, pH 7.5, 0.1 M NaCl, 1 mM MgCl2) to final concentrations of 400 μM NADPH, 25 nM ^3H-cortisone and 0.007% Triton X-100. Plates were incubated at 37° C. for one hour. […] Quenched plates were incubated for a minimum of 30 minutes at RT prior to reading on a Topcount scintillation counter. […]

The test system of a further assay is healthy volunteers. The following applies: after seven days of carbenoxolone treatment; cited from earlier work.

`CC(=O)N1CCC2(CC(C3(c4ccc(Cl)cc4)CC3)=NO2)C1` (centres unmarked) [Example 1, 7-Acetyl-3-[1-(4-chlorophenyl)cyclopropyl]-1-oxa-2,7-diazaspiro[4.4]non-2-ene] returned an IC50 against human 11βHSD1 of less than 5 µM.
Take `CC1(C)[C@@H](OC(=O)CCC(=O)O)CC[C@]2(C)[C@H]3C(=O)C=C4[C@@H]5C[C@@](C)(C(=O)O)CC[C@]5(C)CC[C@@]4(C)[C@]3(C)CC[C@@H]12` [carbenoxolone]: the “IOP was reduced by” value in the assay with healthy volunteers is 18%.
